Reference: patent US9851354B2, “Methods of treating fragile X syndrome and related disorders” (Alcobra Ltd., priority 2013, dated 2017)
“Also recorded” adds a separate entry of the source.

Legend:
[1] = test system: Fmr1 knockout (KO) or Wild Type (WT) mice; test: Social approach (sniffing of a juvenile, Trial 1); type: in vivo, mouse; settings: for social approach (sniffing bouts) / social approach, duration of sniffing: 2 months old; for social approach (sniffing bouts): Study 1; for social approach, duration of sniffing: Study 2; for duration of sniffing, Trial 1: 150 mg/kg ip 7 days
Protocol: (§1) Fmr1 knockout mice (KO2) mice (The Dutch-Belgium Fragile X Consortium, 1994), initially obtained from the Jackson Laboratory, and wild type (WT) littermates were generated on a C57BL/6J background and repeatedly backcrossed onto a C57BL/6J background for more than eight generations. The Fmr1 knockout mice were housed in groups of the same genotype in a temperature and humidity controlled room with a 12-h light-dark cycle (lights on from 7 am to 7 pm; testing was conducted during light phase). Room temperature and humidity were recorded continuously in the holding room while food and water were available ad libitum. Testing was conducted on healthy Fmr1 knockout mice and their wild type littermates (N=10 mice per treatment group) at 2 or 6 months of age during the behavioral experiments. Mice were housed in commercial plastic cages and experiments were conducted in line with the requirements of the UK Animals (Scientific Procedures) Act, 1986. All experiments were conducted with experimenters blind to genotype and drug treatment. Animals were allowed a minimum acclimatization period of one week prior to performing any experiment. No prophylactic or therapeutic treatment was administered during the acclimatization period.
(§2) In all cases, saline was used as a vehicle (control).
Mice are a social species that engage in easily scored social behaviors including approaching, following, sniffing, grooming, aggressive encounters, sexual interactions, parental behaviors, nesting, and sleeping in a group huddle. Social approach in mice was evaluated by sniffing duration directed to a novel mouse.
(§3) Mice were placed in a test arena/cage of the same order of magnitude in size as the adult's home cage (40×23×12 cm cage, with a Perspex lid to facilitate viewing the mice) with fresh wood chippings on the floor. A background mouse odor was created by putting in some non-experimental mice into the apparatus prior to testing. Mice were transferred to the experimental room 10-15 min prior to testing. A test subject and a juvenile were placed simultaneously into the test cage. The total duration and number of bouts of social investigation, defined as sniffing and close following (<2 cm from the tail) of the stimulus juvenile by the tested mouse, was assessed for 3 min. 30 min later, the test was repeated using the same stimulus juvenile. Data parameters collected were the total duration and total number of bouts of sniffing for the acquisition and recognition. A social memory ratio was derived, defined as trial 2/trial 1+2. Therefore, no memory (e.g. 20/(20+20)=0.5 and memory (e.g. 10/(20+10)=<0.5.
(§4) Multivariate analysis of variance was employed to assess group differences across data. Repeated measures ANOVA were performed for behavioral data. Statistically significant effects in each ANOVA were followed with post hoc comparisons, using the Newman-Keuls test (Study 1) or the Tukey test (Study 2). A p value of less than 0.05 was considered significant.

[2] = test system: Fmr1 knockout (KO) or Wild Type (WT) mice; test: T-maze rewarded alternation task; type: in vivo, mouse; settings: 2 months old, 150 mg/kg once daily 7 days, Study 1
Protocol: as §1, §2
An elevated or enclosed apparatus in the form of a T (placed horizontally) was used. […]

[3] = test system: hippocampal slices from Fmr1 knockout or WT mice; test: De novo hippocampal protein synthesis in vitro (SUnSET); type: cell-based, mouse; settings: hippocampal slices from Fmr1 KO mice, 300 μM
Protocol: as §2
Transverse hippocampal slices (400 μm) were obtained from 6-week-old Fmr1 knockout and WT mice. A protein synthesis assay was performed as previously described using the nonradioactive fluorescence-activated cell sorting-based assay, surface sensing of translation (SUnSET) method, which allows the monitoring and quantification of global protein synthesis in individual mammalian cells and in heterogeneous cell populations. (Hoeffer, 2011).

[4] = cited from earlier work
[5] = test system: Fmr1 knockout (KO) or Wild Type (WT) mice; test: Social recognition memory (Trial 2, social memory ratio); type: in vivo, mouse; settings: for social memory, duration of sniffing: 2 months old, Study 2; for duration of sniffing, Trial 2: 150 mg/kg ip 7 days
Protocol: as §1, §2, §3, §4
Social memory ratio was defined as the duration of sniffing bouts: trial 2/trial 1+2. Therefore, an example of no memory was (e.g. 20/(20+20)=0.5, while an example of memory was (e.g. 10/(20+10)=<0.5.

[6] = test system: Fmr1 knockout (KO) or Wild Type (WT) mice; test: Y-maze spontaneous alternation; type: in vivo, mouse; settings: 2 months old, 150 mg/kg once daily 7 days, Study 1
Protocol: as §1, §2
Two tasks were implemented. The first was an unlearned assessment of spontaneous alternation between arm entries. […]

[7] = Fmr1 KO mice, 150 mg/kg ip once daily 7 days
[8] = Fmr1 KO mice, 150 mg/kg oral once daily 7 days
[9] = Fmr1 KO mice, 300 mg/kg oral once daily 7 days
[10] = Fmr1 KO mice, 6 months old, 150 mg/kg ip once daily 7 days
[11] = KO-M: Fmr1 KO mice, 6 months old
[12] = WT mice, any dose (150 mg/kg ip, 150 and 300 mg/kg oral)
[13] = WT mice, 6 months old, 150 mg/kg ip once daily 7 days

Cc1ncc(CO)c(CO)c1O.O=C1CC[C@@H](C(=O)O)N1 [metadoxine, pyridoxol L,2-pyrrolidon-5 carboxylate]
social approach (sniffing bouts) ([1]; Fmr1 KO mice, 150 mg/kg ip once daily 7 days, 150 mg/kg): increased social approach in Fmr1 knockout mice; also recorded: improved social interaction
social approach, duration of sniffing [1, 7]: reversal was complete
social approach, duration of sniffing [1, 8]: reversal was complete
social approach, duration of sniffing [1, 9]: reversal was complete
social approach, duration of sniffing (Trial 1) [1, 10]: this effect was partial
social approach, number of sniffing bouts (Trial 1) [1, 10]: did not differ from metadoxine-treated WT mice
duration of sniffing, Trial 1 [1, 11]: 28.4
social approach (sniffing bouts) ([1]; WT mice, 150 mg/kg ip once daily 7 days): no effect on WT mice
social approach, duration of sniffing [1, 12]: without effect on WT mice
social approach, sniffing bouts and duration (Trial 1) [1, 13]: without effect on WT mice
duration of sniffing, Trial 1 ([1]; WT-M: WT mice, 6 months old): 38.5
T-maze rewarded alternation working memory (latency to reach the correct arm) [2]: reversal being partial; also recorded: significant improvement in memory
basal de novo protein synthesis [3]: reduced protein synthesis rates in Fmr1 knockout mouse hippocampi. This effect was partial
mean half life ([4]; human serum, Lu Yuan et al. 2007): about 0.8 hour
half-life in human serum ([4]; human serum, no appreciable differences between oral and intravenous administration): 40 to 60 min
oral bioavailability ([4]; oral): 60-80%
social memory, duration of sniffing [5, 7]: reversal was complete
social memory, duration of sniffing [5, 8]: reversal was complete
social memory, duration of sniffing [5, 9]: reversal was complete
social memory, duration of sniffing (Trial 2) [5, 10]: reversal by metadoxine was complete
social memory, number of sniffing bouts (Trial 2) [5, 10]: reversal for number of sniffing bouts was partial
duration of sniffing, Trial 2 [5, 11]: 12.7
social memory, duration of sniffing [5, 12]: without effect on WT mice
social memory, sniffing bouts and duration (Trial 2) [5, 13]: without effect on WT mice
duration of sniffing, Trial 2 ([5]; WT-M: WT mice, 6 months old): 12.5
Y-maze spontaneous alternation [6]: partial reversal of the deficit
